In paper PMC12006758 (Frontiers in Chemistry, 2025):
Values after ≈ are worked out from the molar mass of the structure shown. Read-outs that look alike come from different tables or passages of the source. Blank lines part the entries; values can stand above or below the compound they belong to.

Tests used:
CA IX = details: benzofuran-based SLC-0111 analog; ref Shaldam et al., 2021; cited from earlier work
HT-29 cancer cell line = assay: MTT cell viability assay, HT-29; format: cell-based; details: Homo sapiens, HT-29 colon cancer cells
Experimental: (§1) All cell lines were obtained from the Vacsera Cell Culture Library, Tissue Culture Unit, Cairo, Egypt, with ATCC certification. For further details, See Supplementary Appendix A in the supplementary data.
(§2) All cell lines were obtained from the Vacsera Cell Culture Library, Tissue Culture Unit, Cairo, Egypt, with ATCC certification.
(§3) Cells were cultured in DMEM (Invitrogen/Life Technologies) supplemented with 10% FBS (Hyclone), […] (Sigma), and 1% penicillin-streptomycin. Cells were seeded at a density of 1.2–1.8 × 10,000 cells per well in 96-well plates with 100 µL of complete growth medium […]. After 24 hours of incubation, 100 µL of serially diluted sterile test compounds were added to achieve final concentrations ranging from 0.01 to 100 µM, with growth media serving as the negative control. Following another 24-hour incubation, supernatants were removed, and cells were prepared for MTT testing.
(§4) Each experiment included a blank control with complete media but no cells. […] Reconstituted MTT was added to the culture medium at 10% of its volume, and cultures were incubated for 2 to 4 hours, depending on cell type and density.
(§5) Absorbance was measured spectrophotometrically at 570 nm, with background absorbance at 690 nm subtracted. Data from all experiments were recorded, and cell viability percentages were calculated.

MCF7 cancer cell line = assay: MTT cell viability assay, MCF7; format: cell-based; details: Homo sapiens
Experimental: as §1, §2, §3, §4, §5

PC3 cancer cell line = assay: MTT cell viability assay, PC3; format: cell-based; details: Homo sapiens, read-out: IC50 PC3
Experimental: as §1, §2, §3, §4, §5

[1] = tested on: normal CCD-986sk cell line; assay: MTT cell viability assay, normal CCD-986sk; format: cell-based; details: Homo sapiens, read-out: IC50 CCD-986sk
Experimental: as §1, §2, §3, §4, §5

PC3 cells [2] = assay: Cell cycle analysis by flow cytometry (PI); format: cell-based, human; details: Pyr at IC50 (8.63 μg/mL), 24 hours
Experimental: For further details, See Supplementary Appendix A in the supplementary data.
After treatment, the cells were washed twice with ice-cold phosphate-buffered saline (PBS, pH 7.4, Sigma-Aldrich, Inc.), collected by centrifugation, and fixed in 66% ice-cold ethanol. The cells were subsequently washed with PBS, resuspended in a solution containing 0.1 mg/mL RNase for 30 minutes, stained with 50 µg/mL propidium iodide (PI), and analyzed using the FACSCalibur flow cytometry system (Becton Dickinson, Franklin Lakes, NJ, USA). Cell cycle distributions were determined with CellQuest software (Becton Dickinson).

PC3 cells [3] = assay: Annexin V-FITC/PI apoptosis assay; format: cell-based, human; details: Pyr at IC50 (8.63 μg/mL), 48 hours
Description: To detect apoptosis in PC3 cancer cells, the Annexin V FITC assay protocol was employed as described in the literature ([Ali et al., 2024]). For further details, See Supplementary Appendix A in the supplementary data.
The Annexin V-FITC Apoptosis Detection Kit (Catalog #: K101-25, Bio Vision Research Products, Mountain View, CA, USA) operates on the principle that during the early stages of apoptosis, phosphatidylserine (PS) translocates from the inner leaflet of the plasma membrane to the extracellular surface. This relocation allows PS to be detected by Annexin V, a protein with high affinity for PS, when conjugated with a fluorescent compound. The staining process is quick, taking only 10 minutes, and apoptosis detection is performed using flow cytometry. The kit differentiates between apoptotic and necrotic cells based on Annexin V-FITC and propidium iodide (PI) labeling. Early apoptotic cells are Annexin V-positive and PI-negative, while late apoptotic cells are both Annexin V-positive and PI-positive.
For the experiment, cells (5 × 10⁵) were cultured in triplicate in Dulbecco’s Modified Eagle Medium (DMEM) at 37 °C in a 5% CO₂ atmosphere for 24 hours to allow for attachment. […] Following incubation, cells were harvested, washed with cold PBS, and resuspended in binding buffer. Annexin V and PI were added, and the cells were incubated at 4 °C in the dark for 30 minutes for staining. Flow cytometric analysis was performed using the FACS Calibur system (Becton Dickinson, Franklin Lakes, NJ, USA) on a minimum of 10⁴ cells. Dot plots were generated, and the total fraction of apoptotic cells was quantified as described.

p53 = p53 protein expression level in PC3 cells; format: cell-based, human; details: DMSO control 151.33 ± 3.33
Bax = Bax protein expression level in PC3 cells; format: cell-based, human; details: DMSO control 81.49 ± 3.16
Bcl-2 = Bcl-2 protein expression level in PC3 cells; format: cell-based, human; details: DMSO control 21.68 ± 0.7
caspase-3 = assay: Caspase-3 activity in PC3 cells; format: cell-based, human; details: DMSO control 67.02 ± 2.6
Description: (§6) This notable increase underscores the activation of downstream apoptotic processes, as caspase-3 is a key effector protease responsible for the cleavage of vital cellular substrates during apoptosis. […] The activation of caspase-9 indicates the involvement of the intrinsic (mitochondrial) pathway, consistent with the observed modulation of upstream regulators, including p53, Bax, and Bcl-2.

caspase-9 = assay: Caspase-9 activity in PC3 cells; format: cell-based, human; details: DMSO control 4.66 ± 0.41
Description: as §6

Structure (SMILES): NS(=O)(=O)c1ccc(NC(=O)Nc2oc3ccccc3c2Br)cc1 [compound 1]
Ki (CA IX): 7.1 nM

IC50 (HT-29 cancer cell line): 27.7 µg/mL (≈ 94.9 µM)
IC50 (MCF7 cancer cell line; MTT, MCF7 breast cancer cells, read-out: IC50 MCF7): 11.2 µg/mL (≈ 38.3 µM)
IC50 (PC3 cancer cell line; MTT, PC3 prostate cancer cells): 8.36 µg/mL (≈ 28.6 µM)
Structure (SMILES): NS(=O)(=O)c1ccc(NC(=O)Nc2ccncc2)cc1 [Pyr, 4-(3-(pyridin-4-yl)ureido)benzenesulfonamide]
IC50 ([1]; MTT, normal CCD-986sk cells): 50.3 µg/mL (≈ 172 µM)
DNA content % G2/M (PC3 cells [2]; DMSO control 17.50): 7.18%
DNA content % S (PC3 cells [2]; DMSO control 28.66): 16.23%
DNA content % G0-G1 (PC3 cells [2]; DMSO control 53.84): 76.59%
Apoptosis Late (PC3 cells [3]; DMSO control 0.15): 15.74%
Apoptosis Early (PC3 cells [3]; DMSO control 0.42): 9.33%
Necrosis (PC3 cells [3]; DMSO control 1.82): 4.39%
P53 Conc (p53): 1461.33 ± 10.00 pg/mL
Bax Conc (Bax): 477.27 ± 18.54 pg/mL
Bcl-2 Conc (Bcl-2): 8.88 ± 0.3 pg/mL
Caspase 3 Conc (caspase-3): 573.19 ± 22.27 pg/mL
Caspase-9 Conc (caspase-9): 41.82 ± 0.95 ng/mL

IC50 (MCF7 cancer cell line; MCF7, read-out: IC50 MCF7): 18.1 µg/mL (≈ 58.7 µM)
IC50 (PC3 cancer cell line): 8.71 µg/mL (≈ 28.2 µM)
Structure (SMILES): NS(=O)(=O)c1ccc(NC(=O)Nc2ccc(F)cc2)cc1 [SLC-0111, reference compound]
IC50 ([1]; CCD-986Sk): 45.7 µg/mL (≈ 148 µM)
